One compound from article PMC7236083 (Hormones & cancer, 2020) can be followed below.

Experiment [1] has as its target T1, progesterone receptor (PR) (Homo sapiens, UniProt P06401).
T1 sequence (P06401 675-933): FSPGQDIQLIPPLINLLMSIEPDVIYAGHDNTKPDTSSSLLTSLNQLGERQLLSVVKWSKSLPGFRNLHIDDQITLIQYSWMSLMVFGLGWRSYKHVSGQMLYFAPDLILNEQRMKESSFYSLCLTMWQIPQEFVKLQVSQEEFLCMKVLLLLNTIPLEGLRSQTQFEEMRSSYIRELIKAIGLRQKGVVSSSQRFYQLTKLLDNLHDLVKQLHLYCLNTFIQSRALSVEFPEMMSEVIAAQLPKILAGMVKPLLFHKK
Description: fluorescence polarization competitive binding assay. On the technique in general: Polarisation of emitted light reports the rotation of a fluorescent probe.

Experiment [2] deals with T2, glucocorticoid receptor (GR) (Homo sapiens, UniProt P04150).
T2 sequence (P04150 1-777): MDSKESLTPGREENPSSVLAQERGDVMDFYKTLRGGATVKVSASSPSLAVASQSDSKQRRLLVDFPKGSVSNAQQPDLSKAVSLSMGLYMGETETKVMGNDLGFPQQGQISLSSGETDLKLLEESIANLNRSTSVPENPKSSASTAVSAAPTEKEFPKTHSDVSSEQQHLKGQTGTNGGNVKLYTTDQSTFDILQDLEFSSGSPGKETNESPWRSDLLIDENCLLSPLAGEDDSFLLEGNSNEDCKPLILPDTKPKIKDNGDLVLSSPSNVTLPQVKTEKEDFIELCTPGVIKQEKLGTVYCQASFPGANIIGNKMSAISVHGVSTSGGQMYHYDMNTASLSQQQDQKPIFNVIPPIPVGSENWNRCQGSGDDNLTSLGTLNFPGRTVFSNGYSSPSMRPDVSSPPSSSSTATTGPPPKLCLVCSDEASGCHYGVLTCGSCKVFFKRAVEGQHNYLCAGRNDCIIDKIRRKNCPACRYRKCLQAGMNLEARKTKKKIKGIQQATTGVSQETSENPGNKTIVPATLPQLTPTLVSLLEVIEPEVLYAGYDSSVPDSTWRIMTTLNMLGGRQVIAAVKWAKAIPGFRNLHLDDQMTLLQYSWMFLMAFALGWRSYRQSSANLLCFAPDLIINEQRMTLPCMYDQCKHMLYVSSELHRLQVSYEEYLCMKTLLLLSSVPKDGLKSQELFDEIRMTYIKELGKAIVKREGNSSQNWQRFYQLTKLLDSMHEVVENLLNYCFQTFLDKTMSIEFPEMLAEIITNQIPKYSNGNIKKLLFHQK
Described as above.

As a reminder, the IC50 is the concentration needed to halve the response being measured. Consider `O=c1cc(-c2ccccc2)oc2cc(O)c(O)c(O)c12` [baicalein], for which the IC50 in experiment [1] worked out at 15.3 µM; in experiment [2], 19.3 µM.
